How the values were obtained:
[1] = test system: conscious male rat; assay: Penile intracavernosal pressure in the conscious male rat (telemetry); format: in vivo
Protocol: In addition to treating women with FSD, bombesin antagonists will be useful in treating male erectile dysfunction (MED. Both the non-selective BB1/2 antagonists (Compound 1; 10mg/kg sc) and the selective BB1 receptor antagonist (Compound 3; 15mg/kg sc) is pro-erectile in a conscious rat model of penile erection (Figures 24 and 25). Erectile responses were recorded by measuring intracavernosal pressure using surgically implanted telemetric device. The specific details the surgical procedures, data acquisition and analysis can be found in detail in Bemabe 1999.
Compound 1 and compound 3 were dissolved in 50% β-cyclodextrin in saline. They were administered at a dose of 15mg/kg subcutaneously (sc). […] These increases equate to penile erection. Both Compounds 1 and 3 induced a number of erections in a similar manner to those observed with apomorphine or melanotan-II - both of which are clinically proven agents that are effective in the treatment of MED. Moreover the amplitude of the increases observed were similar to those observed with apomorphine or melanotan-II. The mechanism of action is thought to be similar to the effects on female genital flow ie CNS potentiation of the descending neuronal pathways that control penile erection.

[2] = test system: Sprague Dawley male rats; assay: Sexual behaviour of fluoxetine-induced sexually dysfunctional male rats; format: in vivo, rat; conditions: fluoxetine 20mg/kg i.p. 3 days (vs vehicle+vehicle)
Protocol: Sprague Dawley male rats (Charles River, UK) were kept, 4 rats per cage, in a reversed lighting regime (12:12 hours, lights off at 5.00 h), with free access to food and water. The rats were pre-selected by being presented with a receptive female at 4 days intervals, i.e. every third day (having 2 clear days between presentations) until completing 6-7 trials of baseline determination. The animals showing consistently vigorous behaviour (ejaculatory latencies <300s) were chosen for further experiments. Animals were treated for 3 consecutive days with either vehicle (water) or fluoxetine (20mg/kg, i.p., in a 2ml/kg dosing volume). […] All treatments were administered i.p. in a 1ml/kg volume, 1h before tests.
For all the sexual behaviour tests, the males were placed in an observation arena (50-60 cm diameter), starting 5 hours into the dark cycle and observed under red illumination. Three to 4 minutes after placing the male in the arena, a receptive female (ovariectomised, bearing a 7 mm Silastic implant of oestradiol benzoate) was introduced to the arena and the following parameters noted: Mount Latency: time (in seconds) taken between introduction of female and first mount. A maximum time of 15 minutes (900 seconds) was allowed, and the test terminated if no mounts were recorded within that time (Figure 16), Ejaculation Latency: time (in seconds) taken from first intromission to ejaculation. A maximum time of 30 minutes (1800 seconds) was given, and the test terminated if ejaculation was not achieved in that time (Figure 17), Percentage of males achieving ejaculation within 30 minutes was calculated (Figure 18).
A one-way ANOVA followed by Dunnett's t test was used to compare the fluoxetine+vehicle group and other groups for mount and ejaculatory latencies. Percentage of animals ejaculating was analysed using a Chi-square test followed by Fisher's test. (*: P<0.05, **: P<0.01, ***: P<0.001; n=15-19).

[3] = test system: Female New Zealand rabbits; assay: Pelvic nerve-stimulated female genital blood flow, anaesthetised rabbit model of sexual arousal; format: in vivo
Protocol: Female New Zealand rabbits (~2.5kg) were pre-medicated with a combination of Medetomidine (Domitor®) 0.5ml/kg i.m., and Ketamine (Vetalar®) 0.25ml/kg i.m. whilst maintaining oxygen intake via a face mask. The rabbits were tracheotomised using a Portex™ uncuffed endotracheal tube 3 ID., connected to ventilator and maintained at a ventilation rate of 30-40 breaths per minute, with an approximate tidal volume of 18-20 ml, and a maximum airway pressure of 10 cm H2O. Anaesthesia was then switched to Isoflurane and ventilation continued with O2 at 21/min. The right marginal ear vein was cannulated using a 23G or 24G catheter, and Lactated Ringer solution perfused at 0.5ml/min. The rabbit was maintained at 3% Isoflurane during invasive surgery, dropping to 2% for maintenance anaesthesia.
The left groin area of the rabbit was shaved and a vertical incision was made approximately 5cm in length along the thigh. The femoral vein and artery were exposed, isolated and then cannulated with a PVC catheter (17G) for the infusion of drugs and compounds. Cannulation was repeated for the femoral artery, inserting the catheter to a depth of 10cm to ensure that the catheter reached the abdominal aorta. This arterial catheter was linked to a Gould system to record blood pressure. Samples for blood gas analysis were also taken via the arterial catheter. Systolic and diastolic pressures were measured, and the mean arterial pressure calculated using the formula (diastolic x2 + systolic) ö3. Heart rate was measured via the pulse oxymeter and Po-ne-mah data acquisition software system (Ponemah Physiology Platform, Gould Instrument Systems Inc). A ventral midline incision was made into the abdominal cavity. The incision was about 5cm in length just above the pubis. The fat and muscle was bluntly dissected away to reveal the hypogastric nerve which runs down the body cavity. It was essential to keep close to the side curve of the pubis wall in order to avoid damaging the femoral vein and artery which lie above the pubis. The sciatic and pelvic nerves lie deeper and were located after further dissection on the dorsal side of the rabbit. Once the sciatic nerve is identified, the pelvic nerve was easily located. The term pelvic nerve is loosely applied; anatomy books on the subject fail to identify the nerves in sufficient detail. However, stimulation of the nerve causes an increase in vaginal and clitoral blood flow, and innervation of the pelvic region. The pelvic nerve was freed away from surrounding tissue and a Harvard bipolar stimulating electrode was placed around the nerve. […] A frequency response curve was determined at the start of each experiment in order to determine the optimum frequency to use as a sub-maximal response, normally 4Hz. […]

[4] = day 4 Compound (1) 15mg/kg or yohimbine 2mg/kg i.p. 1h before tests (vs fluoxetine+vehicle)

SMILES: COc1ccc(C2(CNC(=O)[C@](C)(Cc3c[nH]c4ccccc34)NC(=O)Nc3ccc([N+](=O)[O-])cc3)CCCCC2)nc1 [Compound (1), (S) 3-(1H-Indol-3-yl)-N-[1-(5-methoxy-pyridin-2-yl)-cyclohexyl-methyl]-2-methyl-2-[3-(4-nitro-phenyl)-ureido]-propionamide]
- erectile response (penile erection) ([1]; Compound 1 10mg/kg sc, Compound 3 15mg/kg sc): pro-erectile
- intracavernosal pressure ([1]; one hour after 10mg/kg sc Compound 1, 45 minutes after 15mg/kg sc compound 3): significant increases in intracavernosal pressure
- Ejaculation latency [2, 4]: significantly decreased
- Mount latency [2, 4]: significantly decreased
- percentage of animals ejaculating ([2]; within 30 minutes, day 4 Compound (1) 15mg/kg or yohimbine 2mg/kg i.p. (vs fluoxetine+vehicle)): increasing the percentage of animals ejaculating
- basal genital blood flow in the absence of PNS ([3]; 15mg/kg sc): no effect
- pelvic-nerve stimulated (PNS) increases in genital (vaginal and clitoral) blood flow ([3]; 15mg/kg sc in 50% β-cyclodextrin in saline): potent enhancer
